This assay concerns the target T1, sodium-proton exchanger of subtype 3 (NHE3) (Homo sapiens, UniProt P48764).
T1 construct: expressed in transfected cells
T1 sequence (P48764 26-834): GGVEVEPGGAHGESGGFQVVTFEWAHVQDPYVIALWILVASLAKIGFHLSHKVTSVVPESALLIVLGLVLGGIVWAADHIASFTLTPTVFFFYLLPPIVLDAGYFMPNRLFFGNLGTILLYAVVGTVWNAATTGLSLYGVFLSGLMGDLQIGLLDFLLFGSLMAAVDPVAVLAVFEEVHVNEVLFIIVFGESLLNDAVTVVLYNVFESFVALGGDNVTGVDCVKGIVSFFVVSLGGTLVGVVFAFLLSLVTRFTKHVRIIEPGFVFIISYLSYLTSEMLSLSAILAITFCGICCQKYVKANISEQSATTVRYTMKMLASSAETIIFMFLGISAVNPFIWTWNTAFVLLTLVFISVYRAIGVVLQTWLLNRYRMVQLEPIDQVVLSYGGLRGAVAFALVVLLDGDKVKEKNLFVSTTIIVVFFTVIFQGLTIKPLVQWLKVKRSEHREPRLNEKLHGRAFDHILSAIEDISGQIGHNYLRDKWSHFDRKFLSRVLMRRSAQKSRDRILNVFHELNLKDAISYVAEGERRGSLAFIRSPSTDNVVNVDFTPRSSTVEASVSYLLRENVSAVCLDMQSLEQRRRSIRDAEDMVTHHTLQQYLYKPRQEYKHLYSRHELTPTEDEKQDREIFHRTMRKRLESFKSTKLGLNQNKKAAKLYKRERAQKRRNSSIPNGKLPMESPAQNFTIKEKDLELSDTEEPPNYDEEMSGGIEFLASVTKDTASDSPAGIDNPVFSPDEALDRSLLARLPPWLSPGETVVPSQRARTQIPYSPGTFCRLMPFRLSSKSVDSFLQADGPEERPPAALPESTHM
As to the kind of experiment: Recovery of intracellular pH (pHi) after acidification in LAP1 cells stably expressing NHE3 (BCECF fluorescence, FLIPR). Type of assay: cell-based. To be noted: LAP1 cells stably expressing NHE3; pH recovery after acidification; range 1 is % inhibition at 10 μM; read-out: Activity range (inhibitory effect on NHE3).

These results are taken from patent US8822449B2, “Substituted aminoindanes and analogs thereof, and the pharmaceutical use thereof” (Sanofi, priority 2008, dated 2014).

On to `NC(=O)c1ccc(O[C@@H]2c3ccccc3C[C@H]2N2CCC[C@@H](N)C2)cc1` (racemic) [Example 525, 4-[rac-trans-(1,2)-2-((R)-3-aminopiperidin-1-yl)indan-1-yloxy]benzamide], for which the IC50 is 1 to 10 µM.

Turning to `NC(=O)Nc1cccc(O[C@@H]2c3ccccc3C[C@H]2N2CCC[C@@H](N)C2)c1` (racemic) [Example 231, {3-[rac-trans-(1,2)-2-((R)-3-aminopiperidin-1-yl)indan-1-yloxy]phenyl}urea], the IC50 was less than 1 µM.

In the case of `NCC1CCN([C@@H]2Cc3ccccc3[C@H]2Oc2ccc(Br)cc2-c2cc[nH]n2)CC1` (racemic) [Example 599, C-(1-{rac-trans-(1,2)-1-[4-bromo-2-(1H-pyrazol-3-yl)phenoxy]indan-2-yl}piperidin-4-yl)methylamine], the IC50 was in the range of 1 to 10 µM.

As for `CSc1ccc(O[C@H]2c3ccccc3CC[C@@H]2N2CCC[C@@H](N)C2)cc1` (racemic) [Example 74, (R)-1-[rac-trans-(1,2)-1-(4-methylsulfanylphenoxy)-1,2,3,4-tetrahydronaphthalen-2-yl]piperidin-3-ylamine], the inhibition at 10 µM is 20 to 50%.

Turning to `O=C1COC(=O)N1c1ccc(O[C@H]2c3cc(Cl)cc(Cl)c3C[C@@H]2N2CC[C@@H](O)C2)cc1` [Example 427, 3-{4-[(1S,2S)-4,6-dichloro-2-((R)-3-hydroxypyrrolidin-1-yl)indan-1-yloxy]phenyl}oxazolidine-2,4-dione], the IC50 lay within 1 to 10 µM.

As for `CS(=O)(=O)c1ccc(O[C@H]2c3cc(Cl)cc(Cl)c3C[C@@H]2N2CCC(N)(C(F)(F)F)C2)cc1` (mixture of isomers) [Example 302, 1-[trans-(1S,2S)-4,6-dichloro-1-(4-methanesulfonylphenoxy)indan-2-yl]-3-trifluoromethylpyrrolidin-3-ylamine], the inhibition at 10 µM fell in the range of 20 to 50%.

With `N#Cc1cc(Cl)ccc1O[C@H]1c2ccccc2CC[C@@H]1N1CCC[C@@H](N)C1` (racemic) [Example 366, 2-[rac-trans-(1,2)-2-((R)-3-aminopiperidin-1-yl)-1,2,3,4-tetrahydronaphthalen-1-yloxy]-5-chlorobenzonitrile], the inhibition at 10 µM lay in the range of 20 to 50%.

On to `Cc1cccc2c1C[C@H](N1CCCC1)[C@H]2Oc1ccc(S(N)(=O)=O)cc1` (racemic) [Example 472, 4-(rac-trans-(1,2)-4-methyl-2-pyrrolidin-1-ylindan-1-yloxy)benzenesulfonamide], for which the IC50 fell in the range of 1 to 10 µM.

Take `N[C@@H]1CCCN([C@H]2CCc3ccccc3[C@@H]2Oc2cccc3ccc(Cl)nc23)C1` (racemic) [Example 41, (R)-1-[rac-trans-(1,2)-1-(2-chloroquinolin-8-yloxy)-1,2,3,4-tetrahydronaphthalen-2-yl]piperidin-3-ylamine]: the IC50 was in the range of 1 to 10 µM.

As to `CC(=O)Nc1cccc(O[C@@H]2c3ccccc3C[C@H]2N2CCC[C@@H](N)C2)c1` (racemic) [Example 679, N-{3-[rac-trans-(1,2)-2-((R)-3-aminopiperidin-1-yl)indan-1-yloxy]phenyl}acetamide], the IC50 was less than 1 µM.

As for `Cc1nnc(C)n1-c1cccc(O[C@H]2c3ccccc3C[C@@H]2N2CCCC2)c1` (racemic) [Example 404, 3,5-dimethyl-4-[3-(rac-trans-(1,2)-2-pyrrolidin-1-ylindan-1-yloxy)phenyl]-4H-[1,2,4]triazole], the inhibition at 10 µM fell in the range of 20 to 50%.

`CS(=O)(=O)c1ccc(O[C@H]2c3cc(Cl)ccc3C[C@@H]2N2CC[C@@H](O)C2)c(Cl)c1` [Example 107, (R)-1-[trans-(1S,2S)-6-chloro-1-(2-chloro-4-methanesulfonylphenoxy)indan-2-yl]pyrrolidin-3-ol]: the IC50 lay within 1 to 10 µM.

Consider `CN(C)Cc1ccc(O[C@H]2c3ccccc3CC[C@@H]2N2CCC[C@@H](N)C2)cc1` (racemic) [Example 67, (R)-1-[rac-trans-(1,2)-1-(4-dimethylaminomethylphenoxy)-1,2,3,4-tetrahydronaphthalen-2-yl]piperidin-3-ylamine], for which the inhibition at 10 µM is 20 to 50%.
